Assay results taken from patent US10597388B2, “Pyridazinone herbicides” (FMC CORPORATION, priority 2014, dated 2020).

What was measured:
Format in all cases: in vivo
[1] = test system: crabgrass, large (large crabgrass, Digitaria sanguinalis); test: Test E greenhouse herbicide test, pre- and postemergence; conditions: Preemergence
How it was run: (§1)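 Visual ratings, 0 for no effect up to 100 for complete control, were taken relative to controls 14 to 21 d after greenhouse treatment. Applications used a surfactant-containing non-phytotoxic solvent formulation, sprayed either preemergence on silt loam-sown seed or postemergence on 1- to 4-leaf plants 2-18 cm tall in peat-based potting medium.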

[2] = test system: beggarticks (hairy beggarticks, Bidens pilosa); test: as above
How it was run: as §1

[3] = test system: Italian ryegrass (Lolium multiflorum); test: as above
How it was run: as §1

[4] = test system: crabgrass, Brazilian (Brazilian crabgrass, Digitaria horizontalis); test: as above
How it was run: as §1

kochia (Kochia scoparia) = test: as above
How it was run: as §1

[5] = test system: goosegrass (Eleusine indica); test: as above; conditions: Preemergence
How it was run: as §1

[6] = test system: dayflower (Virginia (VA) dayflower, Commelina virginica); test: as above
How it was run: as §1

[7] = test system: horseweed (Conyza canadensis); test: as above
How it was run: as §1

[8] = test system: barnyardgrass (Echinochloa crus-galli); test: as above
How it was run: as §1

soybean (Glycine max) = test: as above
How it was run: as §1

[9] = test system: sandbur (southem sandbur, Cenchrus echinatus); test: as above
How it was run: as §1

[10] = test system: pigweed, palmer (palmer pigweed, Amaranthus palmeri); test: as above
How it was run: as §1

[11] = test system: ragweed (common ragweed, Ambrosia elatior); test: as above
How it was run: as §1

[12] = test system: waterhemp_RES2 (ALS & HPPD resistant common waterhemp, Amaranthus rudis); test: Test E greenhouse herbicide test, postemergence
How it was run: (§2)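 Postemergence spray on potted plants, 1–4 leaves, 2–18 cm; greenhouse 14–21 d; visual rating vs controls, 0 (no effect) to 100 (complete control).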

[13] = test system: waterhemp_RES1 (ALS & Triazine resistant common waterhemp, Amaranthus rudis); test: Test E greenhouse herbicide test, postemergence
How it was run: as §2

[14] = 62 g ai/ha, scale 0 to 100 (0 no effect, 100 complete control)
[15] = 31 g ai/ha, scale 0 to 100, 0 no effect, 100 complete control
[16] = 125 g ai/ha, visual, scale 0 no effect to 100 complete control
[17] = 250 g ai/ha, visual, scale 0 no effect to 100 complete control
[18] = 62 g ai/ha, Postemergence, scale 0 to 100 (0 no effect, 100 complete control)
[19] = 62 g ai/ha, Preemergence, scale 0 to 100 (0 no effect, 100 complete control)
[20] = 125 g ai/ha, Postemergence, scale 0 to 100 (0 no effect, 100 complete control)
[21] = 250 g ai/ha, Postemergence, scale 0 to 100 (0 no effect, 100 complete control)
[22] = Postemergence, 31 g ai/ha, visual, scale 0 no effect to 100 complete control
[23] = Preemergence, 31 g ai/ha, scale 0 to 100, 0 no effect, 100 complete control
[24] = Preemergence, 125 g ai/ha, visual, scale 0 no effect to 100 complete control
[25] = Preemergence, 250 g ai/ha, visual, scale 0 no effect to 100 complete control
[26] = 125 g ai/ha, Preemergence, scale 0 to 100 (0 no effect, 100 complete control)
[27] = 31 g ai/ha, visual, scale 0 no effect to 100 complete control
[28] = 125 g ai/ha, scale 0 to 100 (0 no effect, 100 complete control)
[29] = 250 g ai/ha, scale 0 to 100 (0 no effect, 100 complete control)

With `Cc1nn(C)c(=O)c(-c2ccc(F)c3ccccc23)c1O` [Compound 41] the “Plant response rating, Crabgrass, Large” value [1, 14] was 70, the “Plant response rating, Crabgrass, Large” value [1, 15] was 65 and the “Plant response rating, Crabgrass, Large” value [1, 16] was 80. The “Plant response rating, Crabgrass, Large” value [1, 17] was 60, the “Plant response rating, Beggarticks” value [2, 18] was 95 and the “Plant response rating, Beggarticks” value [2, 19] was 98. The “Plant response rating, Beggarticks” value [2, 20] was 95, the “Plant response rating, Beggarticks” value [2, 21] was 100 and the “Plant response rating, Beggarticks” value [2, 22] was 100. For the same compound, the “Plant response rating, Beggarticks” value [2, 23] was 65, the “Plant response rating, Beggarticks” value [2, 24] was 100 and the “Plant response rating, Beggarticks” value [2, 25] was 100. For the same compound, the “Plant response rating, Ryegrass, Italian” value [3, 18] was 85, the “Plant response rating, Ryegrass, Italian” value [3, 19] was 100 and the “Plant response rating, Ryegrass, Italian” value [3, 20] was 85. For the same compound, the “Plant response rating, Ryegrass, Italian” value [3, 26] was 100, the “Plant response rating, Ryegrass, Italian” value [3, 21] was 90 and the “Plant response rating, Ryegrass, Italian” value [3, 22] was 80. The “Plant response rating, Ryegrass, Italian” value [3, 23] was 98, the “Plant response rating, Ryegrass, Italian” value [3, 25] was 100 and the “Plant response rating, Crabgrass, Brazil” value [4, 18] was 20. The “Plant response rating, Crabgrass, Brazil” value [4, 19] was 65, the “Plant response rating, Crabgrass, Brazil” value [4, 20] was 30 and the “Plant response rating, Crabgrass, Brazil” value [4, 21] was 50. The “Plant response rating, Crabgrass, Brazil” value [4, 22] was 10, the “Plant response rating, Crabgrass, Brazil” value [4, 23] was 80 and the “Plant response rating, Crabgrass, Brazil” value [4, 24] was 100. The “Plant response rating, Crabgrass, Brazil” value [4, 25] was 80, the “Plant response rating, Kochia” value (kochia (Kochia scoparia); [18]) was 95 and the “Plant response rating, Kochia” value (kochia (Kochia scoparia); [19]) was 90. The “Plant response rating, Kochia” value (kochia (Kochia scoparia); [20]) was 95, the “Plant response rating, Kochia” value (kochia (Kochia scoparia); [21]) was 95 and the “Plant response rating, Kochia” value (kochia (Kochia scoparia); [22]) was 90. For the same compound, the “Plant response rating, Kochia” value (kochia (Kochia scoparia); [23]) was 90, the “Plant response rating, Kochia” value (kochia (Kochia scoparia); [24]) was 100 and the “Plant response rating, Kochia” value (kochia (Kochia scoparia); [25]) was 100. For the same compound, the “Plant response rating, Goosegrass” value [5, 14] was 0, the “Plant response rating, Goosegrass” value [5, 15] was 0 and the “Plant response rating, Goosegrass” value [5, 16] was 50. For the same compound, the “Plant response rating, Goosegrass” value [5, 17] was 60, the “Plant response rating, Dayflower, VA” value [6, 18] was 40 and the “Plant response rating, Dayflower, VA” value [6, 19] was 40. For the same compound, the “Plant response rating, Dayflower, VA” value [6, 20] was 85, the “Plant response rating, Dayflower, VA” value [6, 21] was 90 and the “Plant response rating, Dayflower, VA” value [6, 22] was 50. The “Plant response rating, Dayflower, VA” value [6, 23] was 15, the “Plant response rating, Dayflower, VA” value [6, 24] was 70 and the “Plant response rating, Dayflower, VA” value [6, 25] was 80. For the same compound, the “Plant response rating, Horseweed” value [7, 18] was 80, the “Plant response rating, Horseweed” value [7, 19] was 100 and the “Plant response rating, Horseweed” value [7, 20] was 80. For the same compound, the “Plant response rating, Horseweed” value [7, 21] was 70, the “Plant response rating, Horseweed” value [7, 22] was 75 and the “Plant response rating, Horseweed” value [7, 23] was 100. The “Plant response rating, Horseweed” value [7, 24] was 100, the “Plant response rating, Horseweed” value [7, 25] was 100 and the “Plant response rating, Barnyardgrass” value [8, 18] was 35. The “Plant response rating, Barnyardgrass” value [8, 19] was 25, the “Plant response rating, Barnyardgrass” value [8, 20] was 50 and the “Plant response rating, Barnyardgrass” value [8, 21] was 60. For the same compound, the “Plant response rating, Barnyardgrass” value [8, 22] was 20, the “Plant response rating, Barnyardgrass” value [8, 23] was 10 and the “Plant response rating, Barnyardgrass” value [8, 24] was 40. For the same compound, the “Plant response rating, Barnyardgrass” value [8, 25] was 65, the “Plant response rating, Soybean” value (soybean (Glycine max); [18]) was 40 and the “Plant response rating, Soybean” value (soybean (Glycine max); [19]) was 35. For the same compound, the “Plant response rating, Soybean” value (soybean (Glycine max); [20]) was 60, the “Plant response rating, Soybean” value (soybean (Glycine max); [26]) was 20 and the “Plant response rating, Soybean” value (soybean (Glycine max); [21]) was 75. The “Plant response rating, Soybean” value (soybean (Glycine max); [22]) was 30, the “Plant response rating, Soybean” value (soybean (Glycine max); [23]) was 0 and the “Plant response rating, Soybean” value (soybean (Glycine max); [25]) was 65. The “Plant response rating, Sandbur” value [9, 18] was 50, the “Plant response rating, Sandbur” value [9, 19] was 70 and the “Plant response rating, Sandbur” value [9, 20] was 70. For the same compound, the “Plant response rating, Sandbur” value [9, 26] was 75, the “Plant response rating, Sandbur” value [9, 21] was 75 and the “Plant response rating, Sandbur” value [9, 22] was 60. The “Plant response rating, Sandbur” value [9, 23] was 50, the “Plant response rating, Sandbur” value [9, 25] was 80 and the “Plant response rating, Pigweed, Palmer” value [10, 18] was 60. The “Plant response rating, Pigweed, Palmer” value [10, 19] was 85, the “Plant response rating, Pigweed, Palmer” value [10, 20] was 90 and the “Plant response rating, Pigweed, Palmer” value [10, 26] was 75. For the same compound, the “Plant response rating, Pigweed, Palmer” value [10, 21] was 95, the “Plant response rating, Pigweed, Palmer” value [10, 22] was 50 and the “Plant response rating, Pigweed, Palmer” value [10, 23] was 15. The “Plant response rating, Pigweed, Palmer” value [10, 25] was 85, the “Plant response rating, Ragweed” value [11, 19] was 70 and the “Plant response rating, Ragweed” value [11, 20] was 90. For the same compound, the “Plant response rating, Ragweed” value [11, 26] was 90, the “Plant response rating, Ragweed” value [11, 21] was 95 and the “Plant response rating, Ragweed” value [11, 22] was 80. The “Plant response rating, Ragweed” value [11, 23] was 5, the “Plant response rating, Ragweed” value [11, 25] was 100 and the “Plant response rating, Waterhemp_RES2” value [12, 27] was 20. For the same compound, the “Plant response rating, Waterhemp_RES2” value [12, 14] was 80, the “Plant response rating, Waterhemp_RES2” value [12, 28] was 80 and the “Plant response rating, Waterhemp_RES2” value [12, 29] was 85. The “Plant response rating, Waterhemp_RES1” value [13, 27] was 75, the “Plant response rating, Waterhemp_RES1” value [13, 14] was 75 and the “Plant response rating, Waterhemp_RES1” value [13, 28] was 90. The “Plant response rating, Waterhemp_RES1” value [13, 29] was 95.
